pEC50, pIC50: −log10 of the molar value. “And” between values parts separate entries of the source, which are not always exact repeats. Equal entries are not always repeated. “Also recorded” adds a separate entry of the source. Where two headings read alike, the source gives them in different places.
How the values were obtained:
lupus = test: SLE (lupus) model: kidney and spleen weight; format: in vivo, MRL/MpJ-Faslpr mice; conditions: Week 19
Experimental: Female MRL/MpJ-Faslpr mice (The Jackson Laboratory) were used to assess the efficacy of Compound A in treating lupus. Starting when animals were 10 weeks of age, protein concentration in urine was measured using urine dipsticks.
At the start of the study, each group in the study had two animals that were 9 weeks old, and all others were 10 weeks old. Dosing of all animals with the test compounds began when the older animals were 11 weeks old. […] […] Dosing was at a consistent time each dosing day throughout the study.
Compound A may be formulated as illustrated in Experimental Method A (see Table 2E.). […] A stock solution of Compound A in DMSO (stock solution concentration of Compound A of 40 mg/mL) was prepared and aliquots for weekly preparations were frozen at −20° C. On each preparation day, a stock solution aliquot was thawed and diluted with other vehicle components to the desired concentration. Formulated Compound A and vehicle were at room temperature for dosing.
The study began when the older animals were 11 weeks old, and concluded when the older animals were 19 weeks old. Body weight was recorded once a week, with the exception of two weight measurements taken the first week of the study (when the older animals were 11 weeks old). Proteinuria was measured in the urine of animals with urine dipsticks once a week, starting when the older animals were 10 weeks old. […] Blood samples were taken retro-orbitally at the start of the study to establish a baseline (15 animals, 3 per group), and when the older animals were 16 weeks (all animals) and when animals were 19 weeks (all animals) at the conclusion of the study. Blood urea nitrogen (BUN) was measured in all animals at study termination in blood samples. After blood collection, animals were euthanized, perfused with PBS, and the left kidneys were collected and weighed and fixed in 10% buffered formalin. Left kidneys were then processed to a formalin-fixed, paraffin-embedded (FFPE) block, and histology was analyzed in Periodic Acid-Schiff-stained sections (1 section per slide), using the criteria described in Alperovich et al., Lupus, 16:18-24 (2007). Right kidneys were weighed and snap-frozen at −80° C. Spleens were also collected and weighed. SLE in animals treated with a BET inhibitor and vehicle.

[1] = tested on: Col1a1, TGB-b1, MCP-1, IL-1b, IL-6, IL-17, TNF-α, Timp1; test: UUO study: tissue RNA levels of biomarkers; format: in vivo, rats
From the text: Tables 29A-29B and FIGS. 28A-28B show tissue RNA levels of various biomarkers (Col1a1, TGB-b1, MCP-1, IL-1b, IL-6, IL-17, TNF-α, and Timp1) in sham rats (black bar in FIG. 28A; square shape in FIG. 28B), UUO rats treated with vehicle (grey bar in FIG. 28A; circle shape in FIG. 28B), and UUO rats treated with Compound A (white bar in FIG. 28A; triangle shape in FIG. 28B). […] FIG. 28C further illustrates gene expression levels of Col1a1, TGB-b1, IL-1b, IL-17, MCP-1, and IL-6 relative to the vehicle control. […] To place this reduction in context, IL-6 is said to be a significant contributor to a continued inflammatory response in certain nephritis conditions.

IL-17A = IL-17A release from activated human PBMCs (ELISA); format: cell-based
Experimental: Human PBMCs used to analyze inhibition of CXCL10 were collected from 8 donors, PBMCs used to analyze inhibition of IL-17A were collected from 7 donors, and PBMCs used to analyze inhibition of IL-22 were collected from 6 donors. Compounds were serially diluted in 10 mM DMSO and further diluted in assay media to 100× the required final concentration, of which 2 μL was added to the specified well. […] The cell culture supernatant was collected and levels of IL-17A and IL-22 in the supernatant were assessed by ELISA (Invitrogen).

BET BD2 = test: Comparison with other BET inhibitors in development (EC50, selectivity, oral bioavailability; public information)
BRD4 BD1 = molecular target: T1, BRD4 BD1 (Homo sapiens, UniProt O60885); test: NanoBRET bromodomain assay, NanoLuc-BRD4-BD1 in HEK293 cells; format: binding
T1 construct: HEK293 cells were transfected using NanoLuc-BRD4-BD1 or NanoLuc-BRD4-BD2 fusion vectors

[2] = UUO rats + Compound A, N=8, relative to UUO + Vehicle = 1.00
[3] = UUO rats, tissue, Compound A 10mg/kg QD, individual animals, 10 mg/kg

Compound: Cn1cc(-c2ccccc2)c(-c2cn(C)c(=O)c3[nH]c(-c4cnn(C(F)(F)F)c4)cc23)cc1=O [Compound A, 6-methyl-4-(1-methyl-2-oxo-5-phenyl-1,2-dihydropyridin-4-yl)-2-(1-(trifluoromethyl)-1H-pyrazol-4-yl)-1,6-dihydro-7H-pyrrolo[2,3-c]pyridin-7-one]
- Mean Kidney Weight (lupus; Compound A 1 mg/kg PO QD): 245 mg
- Mean Spleen Weight (lupus; Compound A 1 mg/kg PO QD): 241 mg
- Mean Kidney Weight (lupus; Compound A 3 mg/kg PO QD): 245 mg
- Mean Spleen Weight (lupus; Compound A 3 mg/kg PO QD): 361 mg
- Mean Kidney Weight (lupus; Compound A 10 mg/kg PO QD): 225 mg
- Mean Spleen Weight (lupus; Compound A 10 mg/kg PO QD): 170 mg
- Kidney weights relative to controls (lupus; Compound A (10 mg/kg) and cyclophosphamide groups): slightly decreased kidney weights
- Spleen weights relative to vehicle controls (lupus; Compound A (all tested doses) and cyclophosphamide): decreased spleen weights
- Col1a1 RNA level, Mean ± SEM [1, 2]: 0.39 ± 0.04
- IL-1b RNA level, Mean ± SEM [1, 2]: 0.31 ± 0.03
- IL-6 RNA level, Mean ± SEM [1, 2]: 0.11 ± 0.02
- IL-17 RNA level, Mean ± SEM [1, 2]: 0.35 ± 0.07
- MCP-1 RNA level, Mean ± SEM [1, 2]: 0.33 ± 0.05
- TGF-b1 RNA level, Mean ± SEM [1, 2]: 0.52 ± 0.05
- TNF-a RNA level, Mean ± SEM [1, 2]: 1.00 ± 0.11
- Timp1 RNA level, Mean ± SEM [1, 2]: 0.54 ± 0.09
- Col1a1 RNA level, Normalized Fold Change [1, 3]: 0.51 and 0.31 and 0.19 and 0.50 (2×) and 0.40 and 0.34 and 0.41
- IL-1b RNA level, Normalized Fold Change [1, 3]: 0.37 and 0.28 and 0.24 (3×) and 0.45 and 0.23 and 0.40
- IL-6 RNA level, Normalized Fold Change [1, 3]: 0.11 (2×) and 0.09 and 0.04 and 0.14 and 0.18 and 0.13 and 0.05
- IL-17 RNA level, Normalized Fold Change [1, 3]: 0.37 and 0.14 and 0.26 and 0.51 and 0.12 and 0.45 and 0.72 and 0.20
- MCP-1 RNA level, Normalized Fold Change [1, 3]: 0.48 and 0.24 and 0.18 and 0.34 and 0.44 and 0.25 and 0.50 and 0.20
- TGF-b1 RNA level, Normalized Fold Change [1, 3]: 0.71 and 0.42 and 0.28 and 0.58 and 0.64 (2×) and 0.40 and 0.50
- TNF-a RNA level, Normalized Fold Change [1, 3]: 1.50 and 1.16 and 1.00 and 0.79 and 1.05 and 0.62 and 1.20 and 0.64
- Timp1 RNA level, Normalized Fold Change [1, 3]: 0.83 and 0.41 and 0.36 and 0.72 (2×) and 0.66 and 0.09 and 0.52
- Tissue RNA level of TNF-α ([1]; UUO rats, 10 mg/kg): no observable effect
- Tissue RNA levels of Col1a1, TGB-b1, MCP-1, IL-1b, IL-6, IL-17, Timp1 ([1]; UUO rats, 10 mg/kg PO QD, vs vehicle, 10 mg/kg): reduced levels of Colla1, TGB-b1, MCP-1, IL-1b, IL-6, IL-17, and Timp1; also recorded: markedly lower
- potency against IL-17A relative to CXCL10 (IL-17A): about 13,000 fold
- Biomarker selectivity (IL-17 vs. CXCL10) (IL-17A; Average preliminary biomarker assay): 3492 Fold
- Percent Inhibition Relative to Control (IL-17A) (IL-17A; Compound Conc. 0.000137174 μM, Donors 1-7, two values per donor): 30.76% and 39.93% and 12.53% and 17.16% and 22.57% and 38.63% and 4.46% and 42.02% and 55.02* Percent and 40.50% and 25.91% and 19.06% and 25.23% and 32.91%
- Percent Inhibition Relative to Control (IL-17A) (IL-17A; Compound Conc. 0.000411523 μM, Donors 1-7, two values per donor): 42.92% and 60.88% and 49.48% and 23.24% and 46.54% and 52.23% and 60.62% and 51.01% and 51.11% and 62.34% and 51.68% and 47.46% and 28.29% and 56.37%
- Percent Inhibition Relative to Control (IL-17A) (IL-17A; Compound Conc. 0.001234568 μM, Donors 1-7, two values per donor): 56.92% and 75.17% and 53.28% and 57.9% and 62.54% and 63.56% and 62.80% and 67.54% and 70.18% and 58.60% and 66.13% and 59.19% and 60.91% and 75.98%
- Percent Inhibition Relative to Control (IL-17A) (IL-17A; Compound Conc. 0.011111111 μM, Donors 1-7, two values per donor): 75.17% and 74.77% and 72.8%
- Percent Inhibition Relative to Control (IL-17A) (IL-17A; Compound Conc. 0.033333333 μM, Donors 1-7, two values per donor): 76.69% and 83.98% and 75.68% and 76.46% and 73.03% and 78.96% and 78.00% and 81.52% and 83.08% and 69.43% and 73.08% and 77.7% and 78.81% and 89.99%
- Percent Inhibition Relative to Control (IL-17A) (IL-17A; Compound Conc. 0.1 μM, Donors 1-7, two values per donor): 80.29% and 80.05% and 78.2% and 79.86% and 80.34% and 80.42% and 83.72% and 86.56% and 80.96% and 85.39% and 77.87% and 84.04% and 85%
- Percent Inhibition Relative to Control (IL-17A) (IL-17A; Compound Conc. 1.52416E−05 μM, Donors 1-7, two values per donor): −2.11% and 5.95% and 4.5% and 4.36% and −0.57% and 6.2% and −11.47% and 18.94% and 28.57% and 13.94% and 37.95% and −8.34% and 0.61% and 18.05%
- Percent Inhibition Relative to Control (IL-17A) (IL-17A; Compound Conc. 4.57247E−05 μM, Donors 1-7, two values per donor): −1.00% and 28.73% and 7.45% and 18.97% and 13.64% and 16.93% and −0.28% and 32.68% and 27.06% and 28.89% and 20.58% and 2.83% and 7.11% and 42.94%
- pIC50 (IL-17A; Homo sapiens, PBMC, Average preliminary biomarker assay, read-out: IL-17A IC50 Mean): 9.52
- inhibition at 0.1 µM (IL-17A; Homo sapiens, PBMC, Compound Conc. 0.1 μM, Donors 1-7, two values per donor, read-out: Percent Inhibition Relative to Control (IL-17A)): 80.8%
- pIC50 (IL-17A; Homo sapiens, PBMC, Preliminary biomarker assay, Test Subject 1, read-out: IL-17A IC50): 9.70
- pIC50 (IL-17A; Homo sapiens, PBMC, Preliminary biomarker assay, Test Subject 2, read-out: IL-17A IC50): 9.52
- pIC50 (IL-17A; Homo sapiens, PBMC, Preliminary biomarker assay, Test Subject 3, read-out: IL-17A IC50): 9.40
- pIC50 (IL-17A; Homo sapiens, PBMC, ELISA, read-out: Selectivity (IC50) IL-17A): 9.57
- IC50, inhibition of release of IL-17A (IL-17A; human PBMCs, 72 hours): sub-nanomolar
- effectiveness relative to GSK620 in reducing IL-17A, IL-22 and CXCL10 (IL-17A; preliminary biomarker assays): more effective than GSK620
- selectivity relative to other BET inhibitors (BET BD2; same comparators): higher selectivity
- EC50 relative to other BET inhibitors (BET BD2; vs NUV-868, ABBV-744, GSK620, Pelabresib, ABBV-075, MK-8628/OTX-015, BI-894999): lower EC50
- EC50 (BRD4 BD1; previously determined, reference level for rat plasma concentrations (FIG. 4D), read-out: free EC50 BD1 (converted)): 182000 nM
- pEC50 (BRD4 BD1; reference level for dog plasma concentrations (Dog PK study #4), read-out: free EC50 BD1 BRD4): 3.86

— US20260217701A1, “SELECTIVE BET INHIBITORS AND USES THEREOF” (Tay Therapeutics Limited, priority 2022, published 2026)
